Series [1] has as its system grey mold (Botrytis cinerea). In words: Disease control assay, tomato plants infected with grey mold. It counts as in vivo. The following applies: peptide sprayed 24 h post infection at 0.1 g/l or 0.3 g/l, FIG. 17. As for the experimental part: The peptides were sprayed 24 h post infection at concentration of 0.1 g/l or 0.3 g/l.
Peptide production was performed using the chaotropic agent-free protocol described in Example 8.
A synthetic peptide (MP18913), which mimics the concatemeric sequence with an N-terminus proline (P) and C-terminus aspartate (D), was chemically synthetized and used as a control treatment.
Peptide activity was assessed by a disease control assay using tomato plants infected with grey mold (Botrytis cinerea). Peptides were sprayed 24 h post infection at concentration of 0.1 g/l or 0.3 g/l. Disease control percentage was determined based on convex hull recovery, with a total of 7 plants examined (n=7) upon infection with Botrytis spores at 250 spores/ml.

For series [2] the following is noted: general statement on onconase; cited from earlier work.

Turning to MP18913 (PKKEEMSYMKRD), the “Control of tomato grey mold infection, comparison in words” value in series [1] is given as “as effective, or slightly more effective, than the chemically synthetized version”.

B1: Onconase: RNAse first identified in Rana pipiens, about 104 amino acids, used as insoluble carrier polypeptide (protein, UniProt P22069 1-104, looked up)
Protein P-30: QDWLTFQKKHITNTRDVDCDNIMSTNLFHCKDKNTFIYSRPEPVKAICKGIIASKNVLTTSEFYLSDCNVTSRPCKYKLKKSTNKFCVTCENQAPVHFVGVGSC
As for B1, in series [2], the pI result is given as “higher than 9.5”.
